Values quoted from earlier work in patent US7332525B2, “Method of treatment of prostate cancer and composition for treatment thereof” (priority 2003, dated 2008).

What was measured:
[1] = tested on: metastasized prostate cancer; details: in vivo
[2] = tested on: metastasized, hormone refractory prostate cancer; details: high doses of tamoxifen alone; patients with metastasized and hormone refractory prostate cancer

SMILES | effect on the progression of metastasized prostate cancer [1] | effect on prostate cancer cells [2]
CN(C)CCOc1ccc(C(=C(CCCl)c2ccccc2)c2ccccc2)cc1 [toremifene, 4-chloro-1,2-diphenyl-1-{4-[2-(N,N-dimethylamino)ethoxy]-phenyl}-1-butene] | some effect | –
CC/C(=C(\c1ccccc1)c1ccc(OCCN(C)C)cc1)c1ccccc1.O=C(O)CC(O)(CC(=O)O)C(=O)O [tamoxifen, (Z)2-[4-(1,2-diphenyl-1-butenyl)phenoxy]-N, N-dimethylethanamine 2-hydroxy-1,2,3-propanetricarboxylate (1:1)] | – | some effect
O=C(c1ccc(OCCN2CCCCC2)cc1)c1c(-c2ccc(O)cc2)sc2cc(O)ccc12 [raloxifene, 6-hydroxy-2(4-hydroxyphenyl)-3-[4-(2-piperdinoethoxy)benzoyl]benzo[b]thiophene] | some effect | –
